In PubChem BioAssay (NCI):
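All cell lines were grown in 96-well plates and treated with compound for 48 hours. The concentration for 50% growth inhibition is given as GI50. TGI: concentration producing complete growth inhibition.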

Experiments:
Assay in all cases: DTP human tumour cell line panel, 48 h
[1] = tested on: UACC-257 melanoma
[2] = tested on: MDA-MB-435
[3] = tested on: HCT-116 colon
[4] = tested on: HT29 colon
[5] = tested on: UO-31 renal
[6] = tested on: SK-MEL-5 melanoma
[7] = tested on: PC-3 prostate
[8] = tested on: HOP-62 NSCLC
[9] = tested on: SNB-19 CNS
[10] = tested on: HL-60(TB) leukemia
[11] = tested on: NCI-H460 lung
[12] = tested on: MDA-MB-231 breast
[13] = tested on: HOP-92 NSCLC
[14] = tested on: A498 renal
[15] = tested on: COLO 205 colon
[16] = tested on: SW-620 colon
[17] = tested on: ACHN renal
[18] = tested on: U251 CNS
[19] = tested on: MALME-3M melanoma
[20] = tested on: SK-MEL-2 melanoma
[21] = tested on: BT-549 breast
[22] = tested on: EKVX NSCLC
[23] = tested on: A549 NSCLC
[24] = tested on: SK-OV-3 ovarian
[25] = tested on: OVCAR-5 ovarian
[26] = tested on: DU-145 prostate
[27] = tested on: MCF7 breast
[28] = tested on: SK-MEL-28 melanoma
[29] = tested on: MOLT-4 leukemia
[30] = tested on: NCI/ADR-RES ovarian
[31] = tested on: HCT-15 colon
[32] = tested on: RPMI-8226 leukemia
[33] = tested on: CCRF-CEM leukemia
[34] = tested on: NCI-H226 lung
[35] = tested on: SF-539 CNS
[36] = tested on: HS 578T breast
[37] = tested on: OVCAR-4 ovarian
[38] = tested on: 786-0 renal
[39] = tested on: IGROV1 ovarian
[40] = tested on: SF-268 CNS
[41] = tested on: T-47D breast
[42] = tested on: K-562 leukemia
[43] = tested on: RXF 393 renal
[44] = tested on: SN12C renal
[45] = tested on: OVCAR-8 ovarian
[46] = tested on: OVCAR-3 ovarian
[47] = tested on: LOX IMVI melanoma
[48] = tested on: KM12 colon
[49] = tested on: UACC-62 melanoma
[50] = tested on: SNB-75 CNS
[51] = tested on: TK-10 renal
[52] = tested on: NCI-H23 lung
[53] = tested on: M14 melanoma
[54] = tested on: SR leukemia
[55] = tested on: HCC-2998 colon
[56] = tested on: SF-295 CNS
[57] = tested on: NCI-H522 lung
[58] = tested on: CAKI-1 renal

CCN(CC)CCNc1ccc([N+](=O)[O-])c2sc3ccccc3c(=O)c12
GI50 [1]: 1370 nM
TGI [1]: 3120 nM
GI50 [2]: 901 nM
TGI [2]: 2320 nM
GI50 [3]: 360 nM
TGI [3]: 1560 nM
GI50 [4]: 392 nM
TGI [4]: 1590 nM
GI50 [5]: 284 nM
TGI [5]: 1660 nM
GI50 [6]: 1530 nM
TGI [6]: 2900 nM
GI50 [7]: 1050 nM
TGI [7]: 2470 nM
GI50 [8]: 1270 nM
TGI [8]: 3640 nM
GI50 [9]: 2220 nM
TGI [9]: 13000 nM
GI50 [10]: 783 nM
TGI [10]: 3270 nM
GI50 [11]: 443 nM
TGI [11]: 1960 nM
GI50 [12]: 2290 nM
TGI [12]: 9150 nM
GI50 [13]: 1260 nM
TGI [13]: 3360 nM
GI50 [14]: 591 nM
TGI [14]: 2160 nM
GI50 [15]: 1350 nM
TGI [15]: 3580 nM
GI50 [16]: 478 nM
TGI [16]: 1930 nM
GI50 [17]: 646 nM
TGI [17]: 4440 nM
GI50 [18]: 607 nM
TGI [18]: 2010 nM
GI50 [19]: 1470 nM
TGI [19]: 3630 nM
GI50 [20]: 1210 nM
TGI [20]: 5530 nM
GI50 [21]: 1740 nM
TGI [21]: 7800 nM
GI50 [22]: 692 nM
TGI [22]: 2530 nM
GI50 [23]: 656 nM
TGI [23]: 2150 nM
GI50 [24]: 2080 nM
TGI [24]: 6300 nM
GI50 [25]: 3470 nM
TGI [25]: 15200 nM
GI50 [26]: 766 nM
TGI [26]: 2050 nM
GI50 [27]: 1270 nM
TGI [27]: 4740 nM
GI50 [28]: 1770 nM
TGI [28]: 3300 nM
GI50 [29]: 386 nM
TGI [29]: 1870 nM
GI50 [30]: 586 nM
TGI [30]: 2720 nM
GI50 [31]: 1700 nM
TGI [31]: 7590 nM
GI50 [32]: 915 nM
TGI [32]: 2840 nM
GI50 [33]: 732 nM
TGI [33]: 3260 nM
GI50 [34]: 2060 nM
TGI [34]: 6600 nM
GI50 [35]: 3090 nM
TGI [35]: 10800 nM
GI50 [36]: 2170 nM
TGI [36]: 8150 nM
GI50 [37]: 1350 nM
TGI [37]: 2810 nM
GI50 [38]: 958 nM
TGI [38]: 2350 nM
GI50 [39]: 285 nM
TGI [39]: 1020 nM
GI50 [40]: 1080 nM
TGI [40]: 2500 nM
GI50 [41]: 4400 nM
TGI [41]: 18900 nM
GI50 [42]: 582 nM
TGI [42]: 3390 nM
GI50 [43]: 1430 nM
TGI [43]: 3030 nM
GI50 [44]: 1070 nM
TGI [44]: 11400 nM
GI50 [45]: 571 nM
TGI [45]: 2420 nM
GI50 [46]: 1320 nM
TGI [46]: 2690 nM
GI50 [47]: 421 nM
TGI [47]: 1790 nM
GI50 [48]: 1190 nM
TGI [48]: 2550 nM
GI50 [49]: 2790 nM
TGI [49]: 16800 nM
GI50 [50]: 1650 nM
TGI [50]: 4780 nM
GI50 [51]: 624 nM
TGI [51]: 2240 nM
GI50 [52]: 1230 nM
TGI [52]: 2780 nM
GI50 [53]: 1360 nM
TGI [53]: 2850 nM

COc1ccccc1/C=C/[N+](=O)[O-]
GI50 [1]: 1840 nM
TGI [1]: 4320 nM
GI50 [2]: 2590 nM
TGI [2]: 10500 nM
GI50 [3]: 1510 nM
TGI [3]: 2900 nM
GI50 [4]: 2010 nM
TGI [4]: 3850 nM
GI50 [54]: 886 nM
TGI [54]: 5020 nM
GI50 [5]: 1450 nM
TGI [5]: 2800 nM
GI50 [6]: 2000 nM
TGI [6]: 4030 nM
GI50 [7]: 2410 nM
TGI [7]: 6930 nM
GI50 [8]: 2570 nM
TGI [8]: 7120 nM
GI50 [9]: 4850 nM
TGI [9]: 19000 nM
GI50 [10]: 1920 nM
TGI [10]: 4490 nM
GI50 [11]: 2030 nM
TGI [11]: 4350 nM
GI50 [12]: 2060 nM
TGI [12]: 6930 nM
GI50 [14]: 1930 nM
TGI [14]: 5030 nM
GI50 [15]: 2120 nM
TGI [15]: 4520 nM
GI50 [16]: 1560 nM
TGI [16]: 3190 nM
GI50 [55]: 1760 nM
TGI [55]: 3240 nM
GI50 [17]: 2010 nM
TGI [17]: 3840 nM
GI50 [18]: 2070 nM
TGI [18]: 5720 nM
GI50 [19]: 2820 nM
TGI [19]: 9110 nM
GI50 [20]: 5400 nM
TGI [20]: 17200 nM
GI50 [21]: 2090 nM
TGI [21]: 4130 nM
GI50 [22]: 15300 nM
TGI [22]: 58300 nM
GI50 [23]: 3000 nM
TGI [23]: 10400 nM
GI50 [24]: 5810 nM
TGI [24]: 17700 nM
GI50 [25]: 3550 nM
TGI [25]: 14100 nM
GI50 [26]: 1950 nM
TGI [26]: 3630 nM
GI50 [27]: 2430 nM
TGI [27]: 7990 nM
GI50 [28]: 1620 nM
TGI [28]: 3660 nM
GI50 [29]: 2540 nM
TGI [29]: 6450 nM
GI50 [56]: 4670 nM
TGI [56]: 20500 nM
GI50 [30]: 2920 nM
TGI [30]: 11600 nM
GI50 [31]: 2320 nM
TGI [31]: 6980 nM
GI50 [32]: 1050 nM
TGI [32]: 3780 nM
GI50 [33]: 2160 nM
TGI [33]: 6470 nM
GI50 [34]: 3410 nM
TGI [34]: 11700 nM
GI50 [35]: 2160 nM
TGI [35]: 4320 nM
GI50 [57]: 1080 nM
TGI [57]: 2470 nM
GI50 [36]: 2790 nM
TGI [36]: 8830 nM
GI50 [37]: 3560 nM
TGI [37]: 37700 nM
GI50 [38]: 1820 nM
TGI [38]: 3350 nM
GI50 [39]: 2540 nM
TGI [39]: 8320 nM
GI50 [40]: 2390 nM
TGI [40]: 5120 nM
GI50 [41]: 3170 nM
TGI [41]: 16900 nM
GI50 [42]: 1560 nM
TGI [42]: 7370 nM
GI50 [43]: 1430 nM
TGI [43]: 2810 nM
GI50 [58]: 2950 nM
TGI [58]: 46600 nM
GI50 [44]: 2470 nM
TGI [44]: 8030 nM
GI50 [45]: 3100 nM
TGI [45]: 10400 nM
GI50 [46]: 2230 nM
TGI [46]: 4670 nM
GI50 [47]: 1400 nM
TGI [47]: 2860 nM
GI50 [48]: 3020 nM
TGI [48]: 8590 nM
GI50 [49]: 1950 nM
TGI [49]: 4130 nM
GI50 [50]: 3570 nM
TGI [50]: 44500 nM
GI50 [51]: 2810 nM
TGI [51]: 6310 nM
GI50 [52]: 1960 nM
TGI [52]: 4600 nM
GI50 [53]: 1890 nM
TGI [53]: 3940 nM
